One series has as its system DLD-1. Kind of series: MTS assay, DLD-1 cells. Format: cell-based. As to conditions: Homo sapiens, 72 hours, read-out: DLD-1, MTS cell kill % inhibition. An outline of the steps: (§1)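 First, seed 3000 cells per well in low-serum (1% FBS) DMEM and culture 18 h. Next, add compounds prepared at 300× in DMSO and diluted 1:40 in DMEM; incubate 72 h. Finally, add MTS/PMS for 4 h and measure absorbance at 492 nm.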

A further series concerns KATO III. The series can be described thus: MTS assay, KATO III cells. Conditions: Homo sapiens, 72 hours, read-out: KATO III, MTS cell kill % inhibition. Format: cell-based. The method, boiled down: as §1
(Tetrazolium dyes change colour on reduction, which living cells bring about.)

Another series relates to MDA-MB-231. The series can be described thus: MTS assay, MDA-MB-231 cells. Format: cell-based. Conditions: Homo sapiens, 72 hours, read-out: MDA-MB-231, MTS cell kill % inhibition. The method, boiled down: as §1
In a further series the test system is NCI-H1299. Kind of series: MTS assay, NCI-H1299 cells. As to conditions: Homo sapiens, 72 hours, read-out: NCI-H1299, MTS cell kill % inhibition. In kind it is cell-based. The method, boiled down: as §1
The next series has as its target IGF-1R (Homo sapiens, UniProt P08069). The series can be described thus: IGFR1 activity assay (ELISA). Format: biochemical. As to conditions: read-out: IGF-1R, PCT INH (30 μM), ELISA. An outline of the steps: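 IGF1R (0.33 ng/μL final) phosphorylating Pyk-2 (0.05 ng/μL final) in buffer with 12.5 μM ATP, 10 mM MgCl2, 1 h room temperature. Product captured on streptavidin plates, detected with anti-phosphotyrosine and alkaline phosphatase secondary antibody, Attophos fluorescent readout.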
For orientation: An ELISA detects its analyte on a solid surface through an enzyme-linked reagent.

Sequence of IGF-1R (P08069 31-1367): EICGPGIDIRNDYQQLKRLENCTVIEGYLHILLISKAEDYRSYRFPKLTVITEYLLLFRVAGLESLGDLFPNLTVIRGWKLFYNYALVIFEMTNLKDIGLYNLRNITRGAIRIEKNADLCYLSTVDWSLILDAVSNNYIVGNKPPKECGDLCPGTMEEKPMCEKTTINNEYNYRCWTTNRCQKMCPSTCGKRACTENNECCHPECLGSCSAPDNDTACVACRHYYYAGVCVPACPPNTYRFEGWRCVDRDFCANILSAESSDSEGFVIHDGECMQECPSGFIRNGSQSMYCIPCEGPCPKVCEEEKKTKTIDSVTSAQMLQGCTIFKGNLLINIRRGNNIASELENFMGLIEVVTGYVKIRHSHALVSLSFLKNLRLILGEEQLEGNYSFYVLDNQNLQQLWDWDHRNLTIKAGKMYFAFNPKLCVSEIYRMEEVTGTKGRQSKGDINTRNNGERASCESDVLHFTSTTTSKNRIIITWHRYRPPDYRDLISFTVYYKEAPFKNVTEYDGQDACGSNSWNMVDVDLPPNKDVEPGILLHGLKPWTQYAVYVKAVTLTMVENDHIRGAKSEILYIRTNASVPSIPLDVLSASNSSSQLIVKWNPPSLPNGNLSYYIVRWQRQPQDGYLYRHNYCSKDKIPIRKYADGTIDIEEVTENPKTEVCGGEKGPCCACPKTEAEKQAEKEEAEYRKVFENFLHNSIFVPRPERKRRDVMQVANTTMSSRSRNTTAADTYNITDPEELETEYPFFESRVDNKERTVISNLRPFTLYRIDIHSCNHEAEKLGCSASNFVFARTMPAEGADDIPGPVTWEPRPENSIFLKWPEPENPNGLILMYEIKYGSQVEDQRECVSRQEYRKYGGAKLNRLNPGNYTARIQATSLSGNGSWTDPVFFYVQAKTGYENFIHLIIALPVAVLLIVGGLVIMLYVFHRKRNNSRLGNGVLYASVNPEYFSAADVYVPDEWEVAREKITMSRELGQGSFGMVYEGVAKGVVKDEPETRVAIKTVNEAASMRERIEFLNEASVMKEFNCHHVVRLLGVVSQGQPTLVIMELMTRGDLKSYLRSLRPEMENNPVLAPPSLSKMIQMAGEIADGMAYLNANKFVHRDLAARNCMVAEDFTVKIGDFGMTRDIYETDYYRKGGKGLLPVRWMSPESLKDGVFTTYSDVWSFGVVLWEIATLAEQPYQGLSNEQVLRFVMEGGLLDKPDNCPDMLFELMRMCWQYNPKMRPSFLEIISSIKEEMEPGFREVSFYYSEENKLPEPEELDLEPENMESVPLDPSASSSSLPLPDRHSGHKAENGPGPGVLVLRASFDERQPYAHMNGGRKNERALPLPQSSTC

In turn, `CC(C)Oc1ccc(-c2c(-c3ccc[nH]c3=O)[nH]c3ccc(C(=O)NCCCN4CCOCC4)cc23)cc1` [Compound 66, 3-(4-isopropoxyphenyl)-N-(3-morpholin-4-ylpropyl)-2-(2-oxo-1,2-dihydropyridin-3-yl)-1H-indole-5-carboxamide] gave a melting point of 140 to 143 °C. Besides, the inhibition at 10 µM in the series with DLD-1 is 50 to 79%. Moreover, in the series on KATO III, the inhibition at 10 µM lay within 80 to 100%. The inhibition at 10 µM in the series on MDA-MB-231 fell in the range of 80 to 100%. In the series with NCI-H1299, the inhibition at 10 µM lay within 80 to 100%. In addition, the inhibition at 30 µM at IGF-1R lay in the range of 80 to 100%.

As for `Cc1cc(C)cc(-c2c(-c3ccc[nH]c3=O)[nH]c3ccc(C(=O)NCCCN4CCOCC4)cc23)c1` [Compound 70, 3-(3,5-dimethylphenyl)-N-(3-morpholin-4-ylpropyl)-2-(2-oxo-1,2-dihydropyridin-3-yl)-1H-indole-5-carboxamide], the melting point is 115 to 120 °C. Also, the inhibition at 10 µM in the series with DLD-1 fell in the range of 80 to 100%. The inhibition at 10 µM in the series with KATO III is 80 to 100%. For the same molecule, the inhibition at 10 µM in the series on MDA-MB-231 was 80 to 100%. For the same molecule, in the series with NCI-H1299, the inhibition at 10 µM fell in the range of 80 to 100%. Further, at IGF-1R, the inhibition at 30 µM fell in the range of 80 to 100%.

As to `Cc1ccc(-c2c(-c3ccc[nH]c3=O)[nH]c3ccc(C(=O)NCCCN4CCOCC4)cc23)cc1` [Compound 72, 3-(4-methylphenyl)-N-(3-morpholin-4-ylpropyl)-2-(2-oxo-1,2-dihydropyridin-3-yl)-1H-indole-5-carboxamide], the melting point lay within 152 to 154 °C. Besides, the inhibition at 10 µM in the series with DLD-1 was in the range of 50 to 79%. Also, in the series with KATO III, the inhibition at 10 µM lay in the range of 80 to 100%. In addition, in the series with MDA-MB-231, the inhibition at 10 µM is < 50%. Besides, the inhibition at 10 µM with NCI-H1299 was 80 to 100%. Further, the inhibition at 30 µM at IGF-1R fell in the range of 80 to 100%.

`Cc1cccc(-c2c(-c3ccc[nH]c3=O)[nH]c3ccc(C(=O)NCCCN4CCOCC4)cc23)c1` [Compound 78, 3-(3-methylphenyl)-N-(3-morpholin-4-ylpropyl)-2-(2-oxo-1,2-dihydropyridin-3-yl)-1H-indole-5-carboxamide] displayed a melting point of 120 to 122 °C. For the same molecule, the inhibition at 10 µM with DLD-1 was in the range of 50 to 79%. Besides, the inhibition at 10 µM with KATO III is < 50%. Also, in the series on MDA-MB-231, the inhibition at 10 µM was < 50%. For the same molecule, the inhibition at 10 µM with NCI-H1299 lay within 50 to 79%. Also, the inhibition at 30 µM on IGF-1R is 80 to 100%.

For `CCOc1ccc(-c2c(-c3ccc[nH]c3=O)[nH]c3ccc(C(=O)NCCCN4CCOCC4)cc23)cc1` [Compound 79, 3-(4-ethoxyphenyl)-N-(3-morpholin-4-ylpropyl)-2-(2-oxo-1,2-dihydropyridin-3-yl)-1H-indole-5-carboxamide], the melting point lay in the range of 143 to 145 °C. Also, the inhibition at 10 µM in the series on DLD-1 was 80 to 100%. Also, the inhibition at 10 µM in the series on KATO III lay in the range of 80 to 100%. For the same molecule, the inhibition at 10 µM in the series with MDA-MB-231 fell in the range of 80 to 100%. Also, the inhibition at 10 µM with NCI-H1299 was in the range of 80 to 100%. The inhibition at 30 µM on IGF-1R lay within 80 to 100%.

Molecule `O=c1[nH]cccc1-c1[nH]c2ccccc2c1-c1ccccc1` [Compound 84, 3-(3-phenyl-1H-indol-2-yl)pyridin-2(1H)-one] had a melting point of 240 to 242 °C. The inhibition at 10 µM in the series with DLD-1 is 50 to 79%. In addition, in the series with KATO III, the inhibition at 10 µM lay in the range of 80 to 100%. The inhibition at 10 µM in the series with MDA-MB-231 lay within 50 to 79%. Also, the inhibition at 10 µM in the series on NCI-H1299 lay within 50 to 79%. Further, the inhibition at 30 µM at IGF-1R was 80 to 100%.

Take `O=c1[nH]cccc1-c1[nH]c2ccccc2c1C1CCN(Cc2cccc3ccccc23)CC1` [Compound 88, 3-{3-[1-(1-naphthylmethyl)piperidin-4-yl]-1H-indol-2-yl}pyridin-2(1H)-one]: the melting point was 205 to 206 °C. Besides, in the series with DLD-1, the inhibition at 10 µM was in the range of 80 to 100%. In the series with KATO III, the inhibition at 10 µM was < 50%. Also, in the series with MDA-MB-231, the inhibition at 10 µM lay in the range of 80 to 100%. For the same molecule, in the series with NCI-H1299, the inhibition at 10 µM is < 50%. In addition, on IGF-1R, the inhibition at 30 µM was < 50%.

A word on the melting point: it is the temperature of the solid-liquid transition.
